Laboratory results taken from patent publication US11434258B2, “Compounds (immunorhelins)” (ISR IMMUNE SYSTEM REGULATION HOLDING AB (PUBL), priority 2017, dated 2022).
Counter-ions that a name gives are not always drawn. Like-named read-outs stand apart in the source and are kept apart here. Non-standard residues stand in square brackets, D forms with d. Residues, ends and D or L forms follow the SMILES beside them. *: point of attachment. pGlu = O=C1CC[C@@H](C(=O)O)N1; tBu = CC(C)(C)*

Legend:
[1] = tested on: T cells; assay: Immune stimulation assay: MHC class I expression on T cells (PBMCs, flow cytometry); format: cell-based, human; settings: PBMCs from a healthy donor, with IL-2, 72 hours
Protocol: FIG. 1: Expression of MHC class I after stimulation of T cells with increasing concentrations of GnRH II. PBMCs from a healthy donor was stimulated with GnRH II and IL-2 for 72 hours. Data points represent mean fluorescent intensity of MCH class I expression on CD4^+ T cells (blue triangles) or CD8^+ T cells (black squares) measured with flow cytometry.
(black). […] Data points represent mean fluorescent intensity of MCH class I expression on CD4^+ T cells (A) or CD8^+ T cells (B) measured with flow cytometry.
Human peripheral blood mononuclear cells (PBMCs) were purified from healthy donors with Ficoll-Hypaque density centrifugation. Cells were cultured in RPMI-1640 medium (Invitrogen) supplemented with 10% fetal bovine serum, 100 […], 100 μg/mL streptomycin and IL-2 (100 U/mL) for 72 hours in 37° C., 5% CO2.

[2] = pH 7.4
[3] = target: T1, GnRHR (Homo sapiens, UniProt P30968); assay: Calcium assay in CHO-K1 cells (Genscript), FLIPR; format: cell-based; settings: CHO-K1/GnRHR/Ga15 cells, relative to agonist control, read-out: GNRHR Stimulation at 1 μM
T1 construct: host or cells: CHO-K1 (CHO-K1/GnRHR/Ga15)
T1 sequence (P30968 1-328): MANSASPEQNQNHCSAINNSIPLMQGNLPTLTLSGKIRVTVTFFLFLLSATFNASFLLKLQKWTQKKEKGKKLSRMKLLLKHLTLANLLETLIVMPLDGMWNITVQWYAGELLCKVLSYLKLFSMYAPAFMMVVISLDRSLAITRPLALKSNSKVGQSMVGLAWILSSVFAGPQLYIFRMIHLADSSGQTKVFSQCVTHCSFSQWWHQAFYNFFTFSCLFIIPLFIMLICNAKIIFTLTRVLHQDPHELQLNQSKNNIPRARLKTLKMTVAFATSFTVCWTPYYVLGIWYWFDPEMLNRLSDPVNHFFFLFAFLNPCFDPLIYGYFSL

[4] = Solubility in PBS (LC/UV AUC trend); settings: PBS pH 7.4, 0.2 mg/ml; rating 1 (good) to 5 (poor)
[5] = Stability in aqueous media (PBS pH 7.4); format: physicochemical; design: unit not given here; settings: phosphate buffer solution (PBS); PBS pH 7.4, 37° C., samples at T=0, 4, 24, 96 h; read-out: Stability grading (t1/2)
Description: LC/MS data was collected for compound identity.

NC(=O)CNC(=O)[C@@H]1CCCN1C(=O)[C@H](Cc1ccc(O)cc1)NC(=O)[C@H](Cc1c[nH]c2ccccc12)NC(=O)CNC(=O)[C@H](Cc1c[nH]cn1)NC(=O)[C@H](CO)NC(=O)[C@H](Cc1c[nH]c2ccccc12)NC(=O)[C@H](Cc1c[nH]cn1)NC(=O)[C@@H]1CCC(=O)N1 [GnRH II] ([pGlu]HWSHGWYPG-NH2)
MHC class I expression on T cells [1]: directly activates these cells

CCNC(=O)[C@@H]1CCCN1C(=O)[C@H](CCCNC(=N)N)NC(=O)[C@H](CC(C)C)NC(=O)[C@@H](Cc1cn(Cc2ccccc2)cn1)NC(=O)[C@H](Cc1ccc(O)cc1)NC(=O)[C@H](CO)NC(=O)[C@H](Cc1c[nH]c2ccccc12)NC(=O)[C@H](Cc1cnc[nH]1)NC(=O)[C@@H]1CCC(=O)N1 [Histrelin acetate]
Solubility grading [2]: 4

CCNC(=O)[C@@H]1CCCN1C(=O)[C@H](CCCNC(=N)N)NC(=O)[C@H](CC(C)C)NC(=O)[C@@H](CC(C)C)NC(=O)[C@H](Cc1ccc(O)cc1)NC(=O)[C@H](CO)NC(=O)[C@H](Cc1c[nH]c2ccccc12)NC(=O)[C@H](Cc1c[nH]cn1)NC(=O)[C@@H]1CCC(=O)N1 [Leuprorelin acetate]
Solubility grading [2]: 2

CCNC(=O)[C@@H]1CCCN1C(=O)[C@H](CCCNC(=N)N)NC(=O)[C@H](CC(C)C)NC(=O)[C@@H](CC(C)C)NC(=O)[C@H](Cc1ccc(O)cc1)NC(=O)[C@H](CO)NC(=O)[C@H](Cc1c[nH]c2ccccc12)NC(=O)[C@H](Cc1c[nH]cn1)NC(=O)[C@@H]1CCC(=O)N1 [Leuprorelin TFA]
Solubility grading [2]: 1

CCNC(=O)[C@@H]1CCCN1C(=O)[C@H](CCCNC(=N)N)NC(=O)[C@H](CC(C)C)NC(=O)[C@@H](Cc1cn(Cc2ccccc2)cn1)NC(=O)[C@H](Cc1ccc(O)cc1)NC(=O)[C@H](CO)NC(=O)[C@H](Cc1c[nH]c2ccccc12)NC(=O)[C@H](Cc1cnc[nH]1)NC(=O)[C@@H]1CCC(=O)N1 [Histrelin TFA]
Solubility grading [2]: 2

NC(=O)CNC(=O)[C@@H]1CCCN1C(=O)[C@H](Cc1ccc(O)cc1)NC(=O)[C@H](Cc1c[nH]c2ccccc12)NC(=O)[C@@H](Cc1c[nH]c2ccccc12)NC(=O)[C@H](Cc1ccc(O)cc1)NC(=O)[C@H](CO)NC(=O)[C@H](Cc1c[nH]c2ccccc12)NC(=O)[C@H](Cc1c[nH]cn1)NC(=O)[C@@H]1CCC(=O)N1 [Compound 64, pGlu-His-Trp-Ser-Tyr-D-Trp-Trp-Tyr-Pro-Gly-amide] ([pGlu]HWSY[dW]WYPG-NH2)
activation at 1 µM [3]: 50%
Solubility grading [4]: 5
half-life at 0.2 mg/ml [5]: < 96

CCNC(=O)[C@@H]1CCCN1C(=O)[C@H](CCCNC(=N)N)NC(=O)[C@H](Cc1c[nH]c2ccccc12)NC(=O)[C@@H](COC(C)(C)C)NC(=O)[C@H](Cc1c[nH]cn1)NC(=O)[C@H](CO)NC(=O)[C@H](Cc1c[nH]c2ccccc12)NC(=O)[C@H](Cc1c[nH]cn1)NC(=O)[C@@H]1CCC(=O)N1 [Compound 10, pGlu-His-Trp-Ser-His-D-Ser(tBu)-Trp-Arg-Pro-NHEt] ([pGlu]HWSH[dS](tBu)WRP-NHEt)
activation at 1 µM [3]: 81%
Solubility grading [4]: 1
half-life at 0.2 mg/ml [5]: > 96

CCNC(=O)[C@@H]1CCCN1C(=O)[C@H](Cc1ccc(O)cc1)NC(=O)[C@H](Cc1c[nH]c2ccccc12)NC(=O)[C@@H](CC(C)C)NC(=O)[C@H](Cc1c[nH]cn1)NC(=O)[C@H](CO)NC(=O)[C@H](Cc1c[nH]c2ccccc12)NC(=O)[C@H](Cc1c[nH]cn1)NC(=O)[C@@H]1CCC(=O)N1 [Compound 50, pGlu-His-Trp-Ser-His-D-Leu-Trp-Tyr-Pro-NHEt] ([pGlu]HWSH[dL]WYP-NHEt)
activation at 1 µM [3]: 105%
Solubility grading [4]: 1
half-life at 0.2 mg/ml [5]: > 96

CC(C)C[C@H](NC(=O)[C@@H](Cc1c[nH]c2ccccc12)NC(=O)[C@H](Cc1c[nH]cn1)NC(=O)[C@H](CO)NC(=O)[C@H](Cc1c[nH]c2ccccc12)NC(=O)[C@H](Cc1c[nH]cn1)NC(=O)[C@@H]1CCC(=O)N1)C(=O)N[C@@H](CCCNC(=N)N)C(=O)N1CCC[C@H]1C(=O)NCC(N)=O [Compound 68, pGlu-His-Trp-Ser-His-D-Trp-Leu-Arg-Pro-Gly-amide] ([pGlu]HWSH[dW]LRPG-NH2)
activation at 1 µM [3]: 86%
Solubility grading [4]: 1
half-life at 0.2 mg/ml [5]: > 96
